The record followed here is patent US12227520B2 (priority 2019, dated 2025).

The subject of series [1] is pLai RLuc reporter virus. In words: microbe, parasite or virus in culture. The class given is cell-based, HIV. The note with it: Human immunodeficiency virus 1, 72 h. The method, boiled down: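 Read-out is Renilla luciferase after 72 h at 37 °C in MT-4 cells infected 2 h beforehand with pLai RLuc reporter virus; compounds diluted 1:3.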
Series [2] is described as follows: Cytotoxicity assay in MT-4 cells. The class given is cell-based, human. The conditions noted are these: human. Put shortly: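 For cytotoxicity, uninfected MT-4 cells were incubated with compounds 5 days at 37 °C, with 10 μM puromycin marking base cytotoxicity. Parallel plates used HIV-1 IIIB-infected (1:250 stock dilution) or mock cells with 5 μM AZT and no-drug controls. Read-out: CellTiter-Glo chemiluminescence.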

Series [3] relates to HIV-1 (IIIB). Put plainly: Antiviral assay in MT-4 cells (HIV MT-4 antiviral assay). The class given is cell-based. The note with it: Human immunodeficiency virus 1, IIIB, MT4, 120 h, HIV-1 (IIIB) in MT-4 cells, 5 days incubation; read-out: EC50. Put shortly: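 Read-out is CellTiter-Glo chemiluminescence after 5-day culture at 37° C, giving protection of MT-4 cells from HIV-1 IIIB cytopathicity. Compounds tested in 1:3 dilution series in complete RPMI; controls were no drug, mock infection and 5 μM AZT.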

Where [4] appears, read: read-out: Antiviral Serum Shift RLuc 50% HS, HS/CCM (RPMI media, 10% FBS, 50% HS, 1% P/S), 72-h incubation.
Setting [5] is: read-out: Antiviral Serum Shift RLuc CCM, CCM (RPMI media, 10% FBS, 1% P/S), 72-h incubation.
[6] abbreviates: uninfected MT-4 cells, 5 days incubation, read-out: CC50.

Where two headings read alike, the source gives them in different places.

Usually CC50 stands for the concentration giving 50% cytotoxicity.

`O=C(NCc1c(F)cc(F)cc1F)c1cn2c(c(O)c1=O)C(=O)N1CCCC[C@@]2(CF)C1` [Example 163-1, (7S)—N-(2,4,6-trifluorobenzyl)-7-(fluoromethyl)-12-hydroxy-1,11-dioxo-1,4,5,6,7,11-hexahydro-3H-2,7-methanopyrido[1,2-a][1,4]diazonine-10-carboxamide]: the values for the EC50 in series [1] (setting [4]), in series [1] (setting [5]) and in series [3] were 11.9 nM, 0.0674 nM and 1.26 nM, respectively. Also, the CC50 at 5 days in series [2] (setting [6]) turned out to be 20.2 µM.

For the molecule `O=C(NCc1c(F)cc(F)cc1F)c1cn2c(c(O)c1=O)C(=O)N1CCc3ccccc3[C@H]2C1` (single isomer, unassigned) [Example 63-1], the figures for the EC50 in series [1] (setting [4]), in series [1] (setting [5]) and in series [3] were 2.16 nM, 0.461 nM and 1.7 nM, respectively. Further, the CC50 at 5 days in series [2] (setting [6]) came to 13.8 µM.

For `O=C(NCc1ccc(F)cc1F)c1cn2c(c(O)c1=O)C(=O)N1CCC[C@H]3C[C@@]32C1` [Example 65-2, (1aS,11aS)—N-(2,4-difluorobenzyl)-7-hydroxy-6,8-dioxo-1a,2,3,4,6,8-hexahydro-1H-5,11a-methanocyclopropa[h]pyrido[1,2-a][1,4]diazonine-9-carboxamide], the EC50 was 3.47 nM in series [1] (setting [4]), 0.341 nM in series [1] (setting [5]) and 1.66 nM in series [3]. Besides, the 50% cytotoxic concentration (CC50) at 5 days in series [2] (setting [6]) turned out to be 8.82 µM.

For `O=C(NCc1ccc(F)cc1F)c1cn2c(c(O)c1=O)C(=O)N1C[C@@H]2CCC(F)(F)C1` [Example 4-2, (7S)-N-(2,4-difluorobenzyl)-4,4-difluoro-12-hydroxy-1,11-dioxo-1,4,5,6,7,11-hexahydro-3H-2,7-methanopyrido[1,2-a][1,4]diazonine-10-carboxamide], the EC50 worked out at 4.36 nM in series [1] (setting [4]), 1.11 nM in series [1] (setting [5]) and 4.8 nM in series [3]. Moreover, in series [2] (setting [6]), the CC50 at 5 days is 10.7 µM.

For the molecule `CC[C@]1(O)CCCN2C[C@H]1n1cc(C(=O)NCc3ccc(F)cc3F)c(=O)c(O)c1C2=O` [Example 77, (6S,7R)—N-(2,4-difluorobenzyl)-6-ethyl-6,12-dihydroxy-1,11-dioxo-1,4,5,6,7,11-hexahydro-3H-2,7-methanopyrido[1,2-a][1,4]diazonine-10-carboxamide], the results for the EC50 in series [1] (setting [4]), in series [1] (setting [5]) and in series [3] were 2.13 nM, 0.762 nM and 2.17 nM, respectively. In addition, the CC50 at 5 days in series [2] (setting [6]) is 15.1 µM.

Take `O=C(NCc1c(F)cc(F)cc1F)c1cn2c(c(O)c1=O)C(=O)N1Cc3cc(F)ccc3C[C@H]2C1` [Example 145, (6S)-10-fluoro-1-hydroxy-2,14-dioxo-N-(2,4,6-trifluorobenzyl)-2,7,12,14-tetrahydro-6H-6,13-methanobenzo[f]pyrido[1,2-a][1,4]diazonine-3-carboxamide]: the EC50 in series [1] (setting [4]) came to 0.92 nM; in series [1] (setting [5]) it was 0.218 nM; in series [3] it was 0.822 nM. In series [2] (setting [6]), the CC50 at 5 days came to 8.85 µM.

In the case of `O=C(NCc1ccc(F)cc1F)c1cn2c(c(O)c1=O)C(=O)N1CCCCC[C@@H]2C1` [Example 5-1, (8R)-N-(2,4-difluorobenzyl)-13-hydroxy-1,12-dioxo-1,3,4,5,6,7,8,12-octahydro-2,8-methanopyrido[1,2-a][1,4]diazecine-11-carboxamide], the figures for the EC50 in series [1] (setting [4]), in series [1] (setting [5]) and in series [3] were 1.24 nM, 0.235 nM and 2 nM, respectively. Further, the CC50 at 5 days in series [2] (setting [6]) was determined as 11.1 µM.

Take `O=C(NCc1c(F)cc(F)cc1F)c1cn2c(c(O)c1=O)C(=O)N1C[C@@H]2CCCC12CC2` [Example 129, (7'S)-12′-hydroxy-1′,11′-dioxo-N-(2,4,6-trifluorobenzyl)-1′,4′,5′,6′,7′,11′-hexahydrospiro[cyclopropane-1,3′-[2,7]methanopyrido[1,2-a][1,4]diazonine]-10′-carboxamide]: the EC50 in series [1] (setting [4]) came out at 4.21 nM; in series [1] (setting [5]), 0.309 nM; in series [3], 1.53 nM. Also, in series [2] (CC50), the CC50 at 5 days turned out to be 7.44 µM.

On to `C[C@H]1C=C[C@H](C)N2C[C@H]1n1cc(C(=O)NCc3c(F)cc(F)cc3F)c(=O)c(O)c1C2=O` [Example 183, (3S,6S,7S)-12-hydroxy-3,6-dimethyl-1,11-dioxo-N-(2,4,6-trifluorobenzyl)-1,6,7,11-tetrahydro-3H-2,7-methanopyrido[1,2-a][1,4]diazonine-10-carboxamide], for which the EC50 in series [1] (setting [4]) was found to be 5.71 nM; in series [1] (setting [5]), 0.262 nM; in series [3], 0.869 nM. Further, in series [2] (setting [6]), the CC50 at 5 days was 10.5 µM.

For `O=C(NCc1ccc(F)cc1F)c1cn2c(c(O)c1=O)C(=O)N1CC/C=C\C[C@@H]2C1` [Example 44-1, (8R,Z)—N-(2,4-difluorobenzyl)-13-hydroxy-1,12-dioxo-1,3,4,7,8,12-hexahydro-2,8-methanopyrido[1,2-a][1,4]diazecine-11-carboxamide], the EC50 in series [1] (setting [4]) was determined as 2.33 nM; in series [1] (setting [5]), 0.677 nM; in series [3], 1.71 nM. The CC50 at 5 days in series [2] (setting [6]) amounted to 10.7 µM.

Turning to `O=C(NCc1c(F)cc(F)cc1F)c1cn2c(c(O)c1=O)C(=O)N1CCc3cc(F)c(F)cc3[C@@H]2C1` (single isomer, unassigned) [Example 110-2], the EC50 in series [1] (setting [4]) is 53.7 nM; in series [1] (setting [5]), 4.81 nM; in series [3], 30.5 nM. The CC50 at 5 days in series [2] (setting [6]) worked out at 6.33 µM.

As for `C[C@@H]1CC[C@H]2CN(C1)C(=O)c1c(O)c(=O)c(C(=O)NCc3c(F)cc(F)cc3F)cn12` [Example 137-2, (4R,7S)-12-hydroxy-4-methyl-1,11-dioxo-N-(2,4,6-trifluorobenzyl)-1,4,5,6,7,11-hexahydro-3H-2,7-methanopyrido[1,2-a][1,4]diazonine-10-carboxamide], the results for the EC50 in series [1] (setting [4]), in series [1] (setting [5]) and in series [3] were 0.821 nM, 0.182 nM and 2.02 nM, respectively. In series [2] (setting [6]), the CC50 at 5 days was found to be 20.7 µM.

Take `C[C@H]1[C@H]2CCCCN1C(=O)c1c(O)c(=O)c(C(=O)NCc3ccc(F)cc3F)cn12` [Example 9, (7R,13S)—N-(2,4-difluorobenzyl)-12-hydroxy-13-methyl-1,11-dioxo-1,4,5,6,7,11-hexahydro-3H-2,7-methanopyrido[1,2-a][1,4]diazonine-10-carboxamide]: the EC50 was 1.68 nM in series [1] (setting [4]), 0.33 nM in series [1] (setting [5]) and 1.8 nM in series [3]. Besides, the 50% cytotoxic concentration (CC50) at 5 days in series [2] (setting [6]) came to 6.61 µM.

`C[C@@H]1C[C@H]2CN(C(=O)c3c(O)c(=O)c(C(=O)NCc4c(F)cc(F)cc4F)cn32)[C@@H](C)C1` [Example 142-1, (3S,5S,7S)-12-hydroxy-3,5-dimethyl-1,11-dioxo-N-(2,4,6-trifluorobenzyl)-1,4,5,6,7,11-hexahydro-3H-2,7-methanopyrido[1,2-a][1,4]diazonine-10-carboxamide]: the EC50 in series [1] (setting [4]) came out at 1.18 nM; in series [1] (setting [5]) it was 0.354 nM; in series [3], 1.97 nM. For the same molecule, the 50% cytotoxic concentration (CC50) at 5 days in series [2] (setting [6]) was found to be 8.42 µM.

With `O=C(NCc1c(F)cc(F)cc1F)c1cn2c(c(O)c1=O)C(=O)N1CCC=C(F)[C@H]2C1` (single isomer, unassigned) [Example 75-2], the values for the EC50 in series [1] (setting [4]), in series [1] (setting [5]) and in series [3] were 2.19 nM, 0.473 nM and 2.09 nM, respectively. Moreover, the CC50 at 5 days in series [2] (setting [6]) worked out at 26 µM.

As for `O=C(NCc1c(F)cc(F)cc1F)c1cn2c(c(O)c1=O)C(=O)N1CCC[C@H](O)C[C@H]2C1` [Example 82-1, (6S,8S)-6,13-dihydroxy-1,12-dioxo-N-(2,4,6-trifluorobenzyl)-1,3,4,5,6,7,8,12-octahydro-2,8-methanopyrido[1,2-a][1,4]diazecine-11-carboxamide], the EC50 came out at 5.16 nM in series [1] (setting [4]), 4.5 nM in series [1] (setting [5]) and 20.5 nM in series [3]. Further, the CC50 at 5 days in series [2] (setting [6]) was greater than 50 µM.

As for `C[C@H]1CC(F)C[C@H]2CN1C(=O)c1c(O)c(=O)c(C(=O)NCc3c(F)cc(F)cc3F)cn12` (stereo partly drawn) [Example 84, (3S,7S)-5-fluoro-12-hydroxy-3-methyl-1,11-dioxo-N-(2,4,6-trifluorobenzyl)-1,4,5,6,7,11-hexahydro-3H-2,7-methanopyrido[1,2-a][1,4]diazonine-10-carboxamide], the EC50 in series [1] (setting [4]) amounted to 1.36 nM; in series [1] (setting [5]), 0.427 nM; in series [3] it was 2.01 nM. Further, the CC50 at 5 days in series [2] (setting [6]) was 37.2 µM.

Turning to `O=C(NCc1ccc(F)cc1F)c1cn2c(c(O)c1=O)C(=O)N1Cc3ccc(Cl)cc3C[C@H]2C1` (single isomer, unassigned) [Example 128-1], the EC50 in series [1] (setting [4]) was determined as 7.61 nM; in series [1] (setting [5]) it was 0.763 nM; in series [3] it was 2.15 nM. Besides, the CC50 at 5 days in series [2] (setting [6]) was greater than 47.2 µM.

Turning to `O=C(NCc1ccc(F)cc1F)c1cn2c(c(O)c1=O)C(=O)N1CCCCC[C@H]2C1` [Example 5-2, (8S)—N-(2,4-difluorobenzyl)-13-hydroxy-1,12-dioxo-1,3,4,5,6,7,8,12-octahydro-2,8-methanopyrido[1,2-a][1,4]diazecine-11-carboxamide], the values for the EC50 in series [1] (setting [4]), in series [1] (setting [5]) and in series [3] were 142 nM, 0.72 nM and 2.9 nM, respectively. In addition, the CC50 at 5 days in series [2] (setting [6]) stood at 19.5 µM.
